“Also recorded” adds a separate entry of the source. Structures can show the parent of a compound that is named as a salt. Values belong to the compound of their own block, whether it stands above or below them.
Key:
[1] = system: MCF-7/ADR (adriamycin resistant) breast adenocarcinoma cells; test: Caspase-3/7 apoptosis assay, drug resistant cells; format: cell-based, human; conditions: 24 hrs
Method: (§1) Human MCF-7 breast adenocarcinoma cells and the adriamycin resistant MCF-7-ADR(NCl-AdrR) were grown at 37° C. in RPMI 1640 medium supplemented with 10% fetal bovine serum (FBS). MCF-7 and MCF-7-ADR cells were seeded to a density of 6×10^3 cells/well and grown for 48 hrs in culture medium containing 10% FBS. Cells were then treated with Cer10-CPNP or control CPNP for 24 hrs in media containing 1% fetal bovine serum. Caspase-3/7 enzymatic activity levels were then measured using the Apo-ONE Homogenous Caspase-3/7 Assay (Promega) and performed following the instructions of the manufacturer. The kit provides a caspase-3/7 substrate and Rhodamine 110, which is cleaved by enzymatically active caspase-3/7 resulting in a fluorogenic cleavage product.

[2] = system: MCF-7 breast adenocarcinoma cells; test: Caspase-3/7 apoptosis assay, drug sensitive cells; format: cell-based, human; conditions: MCF-7, 24 hrs
Method: as §1

[3] = Solubility in water; format: physicochemical
[4] = system: nude mice implanted with subcutaneous human breast adenocarcinoma tumors; test: In vivo NIR imaging: pharmacokinetic distribution and tumor localization; conditions: 24 hours post tail vein injection
Method: A NIR whole animal imaging approach was used to investigate the in vivo pharmacokinetic distribution of ICG-CPNPs in nude mice. […] Two different surface functionalities of CPNPs were evaluated, as-synthesized carboxylate surface termination (not shown) and particles surface functionalized with polyethylene glycol (PEG) (series iii). The in vivo behavior of the ICG-CPNP samples were compared to two controls: a sample of carboxylated ghost CPNPs without a fluorescent encapsulate (series i) and free ICG of equivalent absorption (series ii). […] The relatively short in vivo fluorescence of the free dye is attributed to fluorescence quenching of free ICG in physiological environments (Landsman, M. L. J.; Kwant, G.; Mook, G. A.; Zijlstra, W. G. Journal of Applied Physiology 1976, 40, (4), 575-583; Desmettre, T.; Devoisselle, J. M.; Mordon, S. Survey of Opthalmology 2000, 45, (1), 15-27; Simmons, R.; Shephard, R. J. Journal of Applied Physiology 1971, 30, (4), 502-507; Gathje, J.; Steuer, R. R.; Nicholes, K. R. K. Journal of Applied Physiology 1970, 29, (2), 181-185; Mordon, S.; Devoisselle, J. M.; Soulie-Begu, S.; Desmettre, T. Microvascular Research 1998, 55, (2), 146-152; Maarek, J. M. I.; Holschneider, D. P.; Harimoto, J. Journal of Photochemistry and Photobiology B-Biology 2001, 65, (2-3), 157-164) with rapid aggregation and clearance from the body. […]

[5] = Solvent protection (emission spectra in four bio-relevant solvents); format: physicochemical; conditions: water, DMEM, ethylene glycol, DMSO
Source text: The chemical stability of the encapsulated fluorophore was experimentally verified by analyzing fluorescence spectra as a function of solvent environment. The effect of four bio-relevant solvents (water, Dulbecco's modified Eagle's medium (DMEM), ethylene glycol, and dimethylsulfoxide (DMSO)) on the free ICG dye is shown in FIG. 17A, with shifts in the normalized emission spectra dependent on the solvent environment. The maximum emission wavelengths have a standard deviation of 7.8 nm over an 18 nm spread. These peak values shift toward longer wavelengths due to a combination of general solvent influences and specific solvent effects, such as molecule-molecule interactions and hydrogen bonding. (Lakowicz, J. R., Principles of Fluorescence Spectroscopy. 3rd ed.; Springer: Baltimore, Md., 2006).
Fluorescence spectra were recorded using an in-house spectroscopy system in which emitted radiation was collected at 90 degrees with a 10× microscope objective (N.A. 0.3) coupled into a fiber optic cable leading to the spectrometer (Ocean Optics HR-2000-USB). A high power 785 nm diode laser (450 mW/cm^2) was used as the excitation source (RL785; Renishaw plc, Gloucestershire, UK). […] Aliquots of each were diluted 1:10 into the test solvent and kept in the dark. Measurements were conducted precisely 10 minutes after the sample introduction.

[6] = system: animal subjects; conditions: cited from earlier work
[7] = Fluorescence emission of ICG-CPNPs versus free ICG; format: physicochemical; conditions: aqueous solution, pH 7; data not shown
Source text: The fluorescence spectrum of the dye-doped CPNPs was compared to that of the corresponding free ICG dye under identical optical conditions (785 nm excitation). […] These undesirable phenomena result in peak transformations or spectral shifts, respectively, which are not observed for the embedded ICG emission.
For all optical measurements, samples were placed in a low-volume fluorescence cuvette (9F-SOG-10-GL14-S; Starna Cells, Inc., Atascadero, Calif.), and held by a modified cuvette holder. Absorption spectra were recorded on a PerkinElmer Lambda 950 UV-Vis-NIR spectrophotometer (Perkin Elmer, Waltham, Mass.). The dye-doped particle absorption at 785 nm was compared to a standard curve of absorption vs. ICG concentration to identify the apparent encapsulate content, not accounting for any matrix effects. Next, the release of the encapsulated fluorophore was induced with the addition of a 10:1 volume ratio of a 10^−3 M solution of ethylenediaminetetraacetic acid (EDTA) to the particle suspension. EDTA is a chelating agent that sequesters the divalent Ca^2+ ion from the nanostructure, dissolving the calcium phosphate particles. […]
Fluorescence spectra were recorded using an in-house spectroscopy system in which emitted radiation was collected at 90 degrees with a 10× microscope objective (N.A. 0.3) coupled into a fiber optic cable leading to the spectrometer (Ocean Optics HR-2000-USB). […]

[8] = Quantum efficiency of ICG; format: physicochemical; conditions: PBS pH 7.4, reference HITC
Method: Each measurement was conducted in duplicate on two separate occasions using freshly prepared stock solutions and a new set of standard data.

[9] = in methanol; cited from earlier work
[10] = Relative fluorescence quantum efficiency of Cy3; format: physicochemical; conditions: PBS, excitation 532 nm, reference Rhodamine 6G
Method: As a comparison of the free dye to the encapsulated dye, the relative fluorescence quantum efficiency (QE) was determined according to techniques in the literature. (Williams, A. T. R.; Winfield, S. A.; Miller, J. N. The Analyst 1983, 108, 1067-1071; Kubin, R. F.; Fletcher, A. N. Journal of Luminescence 1982, 27, 455-462). In brief, the integrated fluorescence signals of the free Cy3 and the Cy3-doped CPNPs in PBS were compared to a known reference standard with an excitation wavelength of 532 nm and the QE was calculated using a modified relationship from Lakowicz (Lakowicz, J. R., Principles of Fluorescence Spectroscopy. Third ed.; Springer Science and Business Media: New York, 2006; p 54),
[formula] where Φ, and ΦR are the QE for the sample and the reference respectively, M and Mr are the slopes of the integrated intensity versus absorption plots (FIG. 12A) and n is the refractive index of each solvent. Rhodamine 6G in ethanol was used as a reference with a quantum efficiency of 0.95. (Kubin, R. F.; Fletcher, A. N. Journal of Luminescence 1982, 27, 455-462). […] FIG. 12B exemplifies this enhancement in QE by comparing the fluorescence signal of the Cy3-doped CPNPs to a solution of Cy3 free dye with the same absorption at 532 nm. […]

[11] = Fluorescence correlation spectroscopy in DPBS (pH dependent dissolution); format: physicochemical; conditions: for Diffusion coefficient, average / RH (hydrodynamic radius), average: DPBS pH 4, free dye, average of ten measurements
Source text: Fluorescence correlation spectroscopy was used to determine the solution phase behavior of the particles in order to better understand the particulate behavior in biologically-relevant solutions and to monitor only the fluorescing species. To this end we examined the free dye and the particles in DPBS (Dulbecco's phosphate buffered saline), at pH 7 and at pH 4. Low pH conditions mimicked the acidic environment of an endo-lysosome in which a particle would be enveloped during endocytosis.
FCS measurements were collected for free Cy3 dye at pH 4, Cy3-doped nanoparticles at pH 4 and pH 7 in DPBS. Sample autocorrelation curves are shown in FIG. 9, where a shift of the curve to the right (greater characteristic diffusion time) signifies a lower diffusion coefficient and a larger hydrodynamic radius. In this case, the diffusion time of free Cy3 dye molecules is 127 μs and that of the nanoparticles at pH 7 is 1311 μs. […] The corresponding hydrodynamic radii are RH=9.40±3.83 nm for the nanoparticles at pH 7, RH=0.76±0.09 nm for the nanoparticles at pH 4 and RH=0.75±0.06 nm for the free dye at pH 4. Similar results were obtained for the nanoparticles in DI water at pH 7 and pH 4 (data not shown). In addition to the diffusion data, the particle number concentration can be determined based on the number of particles that diffuse through the observation volume. The CPNP suspension has a particle number concentration of ˜6×10^14 particles/mL, based on these determinations.
The diffusion coefficients and their associated hydrodynamic radii for the ten measurements collected for each sample type (the nanoparticle samples at pH 7 and pH 4, and the Cy3 free dye at pH 4) are listed in Table S1.

Compound: CCCCCCCCCCCCC/C=C/[C@@H](O)[C@H](CO)NC(=O)CCCCCCCCC [Cer10 in DMSO, Decanoyl-ceramide]
caspase 3/7 activity (apoptosis) [1]: not | caspase 3/7 activity (apoptosis) [2]: not

solubility ([3]; water): > 40 mg/mL
Compound: O=C1OC2(c3ccc(O)cc3Oc3cc(O)ccc32)c2ccccc21 [fluorescein sodium salt]

Compound: CC1(C)C(/C=C/C=C/C=C/C=C2\N(CCCCS(=O)(=O)O)c3ccc4ccccc4c3C2(C)C)=[N+](CCCCS(=O)(=O)[O-])c2ccc3ccccc3c21 [free ICG, indocyanine green]
in vivo fluorescence signal [4]: no detectable signal; also recorded: No fluorescence signal is detected | spread of maximum emission wavelengths over four solvents [5]: 18 nm | LD50 [6]: 50 to 80 mg/kg | concentration at which self-aggregation and loss of emission intensity occur [7]: 7 µM | quantum efficiency (per molecule) [8]: 0.028±0.001

Compound: CN1C(=CC=CC=CC=CC2=[N+](C)c3ccccc3C2(C)C)C(C)(C)c2ccccc21.[I-] [hexamethylindotricarbocyanine (HITC), 1,1′,3,3,3′,3′-hexamethylindotricarbocyanine iodide]
quantum yield of reference dye [9]: 0.28

quantum efficiency ([10]; listed as Cy3 in free solution): 0.045 | quantum efficiency ([10]; listed as free Cy3 dye): 0.045±0.002 | solubility in water [3]: < 0.05 mg/mL | Diffusion coefficient, average [11]: 2.90 × 10^−6 cm^2/s | RH (hydrodynamic radius), average [11]: 0.751 nm | Diffusion coefficient, average ([11]; listed as free Cy3 dye): 29.0±0.18×10^−7 cm^2/s | RH (hydrodynamic radius), average ([11]; listed as free Cy3 dye): 0.75±0.06 nm | diffusion time ([11]; sample autocorrelation curve, free dye pH 4): 127 μs
Compound: Cy3 amidite [Cy3 Dye]
